Patent publication US8557746B2, “High throughput screens for small-molecule inhibitors of the nuclear receptor-like pathway regulating multidrug resistance in fungi” (The General Hospital Corporation, priority 2009, dated 2013)
“Also recorded” adds a separate entry of the source.

What was measured:
S. cerevisiae gal11Δ = assay: Drug sensitivity assay on agar, S. cerevisiae GAL11 deletion strain; assay type: cell-based; details: growth on YPD agar with increasing drug concentration
Description: (§1) Fresh S. cerevisiae colonies were inoculated in 5 ml of YPD or SD selection medium, and grown overnight at 30° C. The cells were diluted to an OD600 of 0.2, and 2 μl were spotted on agar-based solid medium containing an increasing gradient of drugs (for example, ketoconazole, cycloheximide, or 4-NQO) in the agar. The plates were incubated at 30° C. for 2-3 days. Susceptibility of the C. glabrata mutants was tested by spotting serial dilutions of cells onto YPD agar plates supplemented with fluconazole or ketoconazole. The yeast strains were grown overnight at 30° C. in YPD liquid medium. Cells were diluted to an OD600 of 2.0 in PBS, and 4 μl of the cell suspension and tenfold serial dilutions of the cells were spotted onto plates. Growth was assessed after 1 day of incubation at 30° C.

PDR5 gene = assay: Xenobiotic-induced transcription of Pdr1p/Pdr3p target genes by quantitative real-time RT-PCR; assay type: cell-based; details: S. cerevisiae, Pdr1p/Pdr3p-dependent, 20 min drug treatment
Description: Yeast cultures were grown overnight with agitation in YPD at 30° C. The next day, cells were pelleted and washed twice with sterilized purified water (Millipore). Cells were then resuspended in 1% yeast extract and 2% peptone (YP) to an optical density (OD600) of 0.8, grown for another 16 hr at 30° C., then treated with different drugs for 20 min for quantitative RT-PCR, or 5 hr for β-galactosidase assay.
Total RNA was extracted from 5 ml of yeast culture using the Qiagen RNeasy MiniKit. Two micrograms of total RNA was used to generate cDNA using the First-Strand cDNA Synthesis Kit (GE Healthcare). The cDNA mix was diluted tenfold, and 2 μl was used for real-time quantitative PCR with SYBR Green (Applied Biosystems) on an ABI Prism 7900HT Sequence Detection System (Applied Biosystems).

C. glabrata Cggal11AΔ = assay: Drug sensitivity growth assay, C. glabrata CgGAL11A deletion strain; assay type: cell-based; details: growth assays on YPD plates
Description: as §1

Myc6-Pdr1p = target: T1, Myc6-Pdr1p (Saccharomyces cerevisiae, UniProt P12383); assay: Drug-binding and cold competition assay with 3H-ketoconazole; set-up: species or system S. cerevisiae; details: for competition of binding of radiolabelled ketoconazole to Pdr1p by unlabelled xenobiotic: unlabelled xenobiotic at 1,000-fold excess of KET
T1 construct: N-terminal Myc-tagged full-length wild-type Pdr1p (Myc6-Pdr1pwt); made in house; host or cells: yeast (S. cerevisiae), immunopurified with anti-Myc 9E10 on Protein A/G beads
T1 sequence (P12383 whole entry): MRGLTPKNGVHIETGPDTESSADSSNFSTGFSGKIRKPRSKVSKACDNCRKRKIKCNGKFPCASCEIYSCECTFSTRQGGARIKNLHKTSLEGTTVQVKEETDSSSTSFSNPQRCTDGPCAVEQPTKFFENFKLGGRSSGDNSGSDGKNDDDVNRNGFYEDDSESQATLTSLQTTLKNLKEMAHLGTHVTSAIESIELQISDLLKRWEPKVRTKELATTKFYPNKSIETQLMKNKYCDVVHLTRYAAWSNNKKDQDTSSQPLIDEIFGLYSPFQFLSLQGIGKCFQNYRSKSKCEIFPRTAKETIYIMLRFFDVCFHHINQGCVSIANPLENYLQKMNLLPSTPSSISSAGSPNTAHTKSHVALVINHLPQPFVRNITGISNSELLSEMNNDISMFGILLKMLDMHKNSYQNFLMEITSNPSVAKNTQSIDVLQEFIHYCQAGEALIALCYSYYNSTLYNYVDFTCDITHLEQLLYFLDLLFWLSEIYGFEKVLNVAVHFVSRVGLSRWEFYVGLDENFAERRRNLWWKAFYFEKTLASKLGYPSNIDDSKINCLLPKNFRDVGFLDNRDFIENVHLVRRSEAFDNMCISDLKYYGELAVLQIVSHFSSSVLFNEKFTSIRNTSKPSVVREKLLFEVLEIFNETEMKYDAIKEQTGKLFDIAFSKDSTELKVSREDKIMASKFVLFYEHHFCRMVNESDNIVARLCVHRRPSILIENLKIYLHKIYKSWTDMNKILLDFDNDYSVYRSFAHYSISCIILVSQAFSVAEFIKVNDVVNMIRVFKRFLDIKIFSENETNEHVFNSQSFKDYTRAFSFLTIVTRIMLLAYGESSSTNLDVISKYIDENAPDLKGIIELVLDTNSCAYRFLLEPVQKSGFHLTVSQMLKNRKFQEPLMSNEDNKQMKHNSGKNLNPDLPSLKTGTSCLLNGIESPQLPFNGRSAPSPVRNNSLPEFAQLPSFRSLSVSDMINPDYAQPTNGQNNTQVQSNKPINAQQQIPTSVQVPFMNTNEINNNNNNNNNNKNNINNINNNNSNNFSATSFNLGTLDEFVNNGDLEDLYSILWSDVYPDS
Description: (§2) For co-immunoprecipitation, yeast cells were transformed with Myc6-Pdr1pwt and Gal11p-Flag2 (or Gal11pAKIX-Flag2). Cells were washed with 1×PBS after overnight culture in YPD medium, and then cultured in YP for another 24 hr. Cells were then treated with different concentrations of ketoconazole and cycloheximide (or ethanol for vehicle controls) for 1 hr. Yeast cell lysates were extracted in immunoprecipitation buffer (50 mM Tris-HCI, pH 8.0, 140 mM NaCl, 0.1 mM EDTA, 10% glycerol, 0.02% NP-40, 1 mM DTT, 0.25 mM PMSF, 1 mM benzamidine, 0.5 mgml^−1 aprotinin and Protease Inhibitor Cocktail (Complete, Roche)), with or without xenobiotics by vortexing in the presence of glass beads. The Flag-tagged proteins were then immunoprecipitated by adding anti-Flag M2 antibody-beads (Sigma) and incubating for 3 hr with mutating at 4 C. After washing five times with 1 ml of 0.25 M KCl IP buffer, bound proteins were eluted with 0.1 mgml^−1 Flag peptide (Sigma). Xenobiotics at the indicated concentrations were present at all steps of the co-immunoprecipitation, including washing. Immunoblotting was performed according to standard protocols. To immunopurify Myc6-Pdr1pwt or HA-Pdr1pwt, yeast whole-cell extract (in immunoprecipitation buffer) was incubated with anti-Myc (9E10) antibody or anti-HA (F-7) antibody, and a 50% mix of Protein A- and G-Sepharose beads (Amersham) at 4° C. for 3 hr. Beads were washed with IP buffer five times, and used for drug-binding experiments as outlined herein.
Xenobiotic-binding experiments were performed essentially as described (Kapinsky & Lasar, 435 Nature 446-51 (2005)), with some modifications as explained herein. Radiolabelled ketoconazole (KET: [^3H]G), specific radioactivity 10 Ci mmol^−1, was purchased from American Radiolabelled Chemicals. Beads with either immunopurified proteins or GST recombinant proteins were incubated with KET ([^3H]G) in drug-binding buffer (10 mM K2HPO4, 10 mM KH2PO4, pH 7.0, 2 mM EDTA, 50 mM NaCl, 1 mM DTT, 0.5 mM CHAPS, 10% glycerol and protease inhibitors) at 4° C. for 3 hr with mixing in a volume of 500 μl. […]

C. glabrata = assay: C. elegans liquid killing assay; assay type: in vivo; details: fluconazole 8 μg/ml; for survival of nematodes infected with wild-type C. glabrata under antifungal treatment: six-day experiment
Description: The C. glabrata strains and lawns were grown and prepared as described previously. Breger, 3 PloS Pathogens, el8 (2007). The liquid medium killing assays were conducted as detailed in Breger, 2007, with a few changes. After the glp-4;sek-I worms were incubated at 25° C. for 2 days, they were washed off the nematode growth medium plates with M9 and transferred to C. glabrata lawns formed on Brain-Heart Infusion broth (Difco) agar plates. The worms were incubated on the lawns for 4 hr at 25° C., then washed off the plates with M9 buffer and allowed to crawl on unneeded Brain-Heart Infusion broth plates to remove yeast cells from their cuticles. Approximately 70-80 worms were then picked to wells in a six-well microtiter dish that contained 2 ml of liquid medium of 79% M9 buffer, 20% Brain-Heart Infusion broth, 10 μgml^−1 cholesterol in ethanol, and 90 μgml^−1 kanamycin, with the addition of 0.25% DMSO or 8 μgml^−1 fluconazole. The plates were incubated at 25° C. overnight and then examined at 24 hr intervals for survival. […] P values were calculated based on the entire six-day experiment with the log rank and Wilcoxon tests performed by STATA 6 statistical software (Stata, College Station, Tex.).

CgPdr1p = assay: Binding of 3H-ketoconazole to immunopurified CgPdr1p; set-up: species or system C. glabrata; details: immunopurified Myc6-CgPdr1p on beads
Description: as §2, with “Immunoblotting was performed according to standard protocols. To immunopurify Myc6-Pdr1pwt or HA-Pdr1pwt, yeast whole-cell extract (in immunoprecipitation buffer) was incubated with anti-Myc (9E10) antibody or anti-HA (F-7) antibody, and a 50% mix of Protein A- and G-Sepharose beads (Amersham) at 4° C. for 3 hr. Beads were washed with IP buffer five times, and used for drug-binding experiments as outlined herein.” left out
Xenobiotic-binding experiments were performed essentially as described (Kapinsky & Lasar, 435 Nature 446-51 (2005)), with some modifications as explained herein. Radiolabelled ketoconazole (KET: [^3H]G), specific radioactivity 10 Ci mmol^−1, was purchased from American Radiolabelled Chemicals. […]

[1] = test system: S. cerevisiae wild-type cells; assay: High throughput cell viability screen (OD600) with or without ketoconazole; assay type: cell-based; details: OD600, two-fold dilutions from 30 μg/mL, with ketoconazole
Description: Briefly, S. cerevisiae or C. glabrata wild-type cells are grown to exponential growth phase and added to 384-well plates. Each well contains rich media with either (a) drug of interest or (b) drug of interest with ketoconazole. Serial 2-fold dilutions of compounds are tested to determine concentration-dependent effects upon cell viability. Cells are incubated at 30° C. and optical density (OD600) is measured to determine cell growth. Plates are set up in duplicate and compounds are scored for their ability to inhibit cell growth in the presence or absence of ketoconazole. For S. cerevisiae screening, wild-type inoculum cultures were grown in YPD (1% yeast extract, 2% bacto-peptone, 2% dextrose) at 30° C., 200 rpm overnight. On day 2, these cultures were expanded to log-phase growth in the morning (OD600˜0.500). On day 3, compounds of interest were added to 25 μL of YPD or YPD+10 μM ketoconazole at an initial concentration of 30 μg/mL and set up as 5 two-fold serial dilutions. Log-phase wild-type cultures with an OD600˜0.500 were diluted to an OD600 of 0.005 and added at an equal volume (25 μL) of wild-type cells to wells with compounds +/− ketoconazole. Initial OD600 values were read with a Perkin Elmer EnVision and plates incubated in a moist chamber at 30° C. OD600 was read at 24 hr, 48 hr, 72 hr and 96 hr. […]

| Structure (SMILES) | sensitivity of GAL11 deletion strain to toxin/xenobiotic (S. cerevisiae gal11Δ) | induction of expression of drug efflux pump PDR5 and other Pdr1p/Pdr3p target genes (PDR5 gene) | sensitivity of CgGAL11A deletion strain to drug (C. glabrata Cggal11AΔ) | competition of binding of radiolabelled ketoconazole to Pdr1p by unlabelled xenobiotic (Myc6-Pdr1p) | survival of nematodes infected with wild-type C. glabrata under antifungal treatment (C. glabrata) | also measured |
| --- | --- | --- | --- | --- | --- | --- |
| O=[N+]([O-])c1cc[n+]([O-])c2ccccc12 [4-nitroquinoline oxide] | striking sensitivity |  |  |  |  |  |
| C[C@@H]1C[C@@H]([C@H](O)CC2CC(=O)NC(=O)C2)C(=O)[C@@H](C)C1 [cycloheximide] | striking sensitivity | induced | markedly increased sensitivity | effectively competed |  |  |
| OC(Cn1cncn1)(Cn1cncn1)c1ccc(F)cc1F [fluconazole] |  |  | markedly increased sensitivity |  | completely resistant; also recorded: death of most nematodes within six days | survival of nematodes infected with Cggal11B or Cgmed1 deletion strains in the presence of antifungal (C. glabrata; Cggal11B or Cgmed1 deletion strains): little difference in survival rates; survival of nematodes infected with Cgpdr1 and Cggal11A deletion strains in the presence of antifungal (C. glabrata): significantly increased survival; survival of nematodes infected with Cgpdr1 and Cggal11A deletion strains in the presence of antifungal (C. glabrata; listed as Fluconazole): increased the lifespan of nematodes |
| CC(=O)N1CCN(c2ccc(OCC3COC(Cn4ccnc4)(c4ccc(Cl)cc4Cl)O3)cc2)CC1 (stereo not drawn) [ketoconazole] | striking sensitivity | induced | markedly increased sensitivity | effectively competed | completely resistant | direct binding of radiolabeled compound to CgPdr1p (CgPdr1p): binds directly; Kd (Myc6-Pdr1p; cold ligand competition, 0.1 μM 3H-KET, Myc6-Pdr1p, read-out: dissociation constant (KD) of binding to immunopurified Pdr1p): ~39 µM |
| CN(C/C=C/C#CC(C)(C)C)Cc1cccc2ccccc12 [terbinafine] |  |  |  |  |  | growth inhibition in the presence of ketoconazole [1]: eliminate cell growth |
